Columns and labels:
[1] = test system: cocklebur; assay: Test B pre-/postemergence herbicide test; format: in vivo, Xanthium strumarium; details: for Plant response rating (0 to 100 scale), Cocklebur: 0 is no effect, 100 is complete control, preemergence
Summary of the method: (§1)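 Response was scored visually 13 to 15 days after treatment against untreated greenhouse controls, 0 meaning no effect and 100 complete control. Formulations (solvent mixture plus surfactant) went onto soil after planting, onto foliage of 1- to 4-leaf plants, and onto 2-leaf plants in a flooded paddy set including rice and barnyardgrass.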

[2] = test system: lambsquarters; assay: Test B pre-/postemergence herbicide test; format: in vivo, Chenopodium album; details: for Plant response rating (0 to 100 scale), Lambsquarters: 0 is no effect, 100 is complete control, preemergence
Summary of the method: (§2)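 Greenhouse pot assay with simultaneous preemergence (treated seed) and postemergence (2–18 cm seedlings) applications of surfactant-containing, non-phytotoxic solvent formulations. Response scored visually 13–15 days later on a 0–100 scale, 100 meaning complete control.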

[3] = test system: pigweed; assay: Test B pre-/postemergence herbicide test; format: in vivo, Amaranthus retroflexus; details: for Plant response rating (0 to 100 scale), Pigweed: 0 is no effect, 100 is complete control, preemergence
Summary of the method: as §2

[4] = test system: small flower umbrella sedge; assay: Test B flooded paddy test; format: in vivo, Cyperus difformis; details: 1000 g ai/ha, scale 0 to 100 (0 no effect, 100 complete control)
Summary of the method: (§3)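 Visual control ratings, 0–100 versus untreated controls, taken after 13 to 15 days in the greenhouse. Blackgrass received a postemergence spray at the 1- to 4-leaf stage (2–18 cm); ducksalad, umbrella sedge and barnyardgrass were flooded-paddy treated at 2 leaves.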

[5] = test system: Surinam grass; assay: Test B pre-/postemergence herbicide test; format: in vivo, Urochloa decumbens; details: for Plant response rating (0 to 100 scale), Surinam Grass: 0 is no effect, 100 is complete control, preemergence
Summary of the method: as §2

[6] = test system: barnyardgrass; assay: Test B pre-/postemergence herbicide test; format: in vivo, Echinochloa crus-galli; details: for Plant response rating (0 to 100 scale), Barnyardgrass: 0 is no effect, 100 is complete control, preemergence; for Barnyardgrass plant response rating: Postemergence, scale 0 (no effect) to 100 (complete control)
Summary of the method: as §1

[7] = test system: morningglory; assay: Test B pre-/postemergence herbicide test; format: in vivo, Ipomoea coccinea; details: for Plant response rating (0 to 100 scale), Morningglory: 0 is no effect, 100 is complete control, preemergence
Summary of the method: as §1

[8] = test system: barnyardgrass; assay: Test B flooded paddy test; format: in vivo, Echinochloa crus-galli; details: 1000 g ai/ha, scale 0 to 100 (0 no effect, 100 complete control)
Summary of the method: as §3

[9] = test system: corn; assay: Test B pre-/postemergence herbicide test; format: in vivo, Zea mays; details: for Plant response rating (0 to 100 scale), Corn: 0 is no effect, 100 is complete control, preemergence
Summary of the method: as §2

[10] = test system: wheat; assay: Test B postemergence herbicide test; format: in vivo, Triticum aestivum; parameters: key to Wheat plant response rating: 0 = no effect, 100 = complete control
Summary of the method: (§4)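 Formulated test chemicals went onto postemergence plants measuring 2 to 18 cm, at one to four leaves. For the paddy assay, species had reached two leaves. Scoring took place 13–15 days later by eye, relative to untreated plants, using 0 for no effect up to 100 for full control.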

[11] = test system: ducksalad; assay: Test B flooded paddy test; format: in vivo, Heteranthera limosa; details: 1000 g ai/ha, scale 0 to 100 (0 no effect, 100 complete control)
Summary of the method: as §3

[12] = test system: large crabgrass; assay: Test B pre-/postemergence herbicide test; format: in vivo, Digitaria sanguinalis; details: for Plant response rating (0 to 100 scale), Crabgrass, Large: 0 is no effect, 100 is complete control, preemergence
Summary of the method: as §2

[13] = test system: blackgrass; assay: Test B postemergence herbicide test; format: in vivo, Alopecurus myosuroides
Summary of the method: as §3

[14] = test system: velvetleaf; assay: Test B pre-/postemergence herbicide test; format: in vivo, Abutilon theophrasti; details: for Plant response rating (0 to 100 scale), Velvetleaf: 0 is no effect, 100 is complete control, preemergence
Summary of the method: as §2

[15] = test system: rice; assay: Test B flooded paddy test; format: in vivo, Oryza sativa; details: 1000 g ai/ha, scale 0 to 100 (0 no effect, 100 complete control)
Summary of the method: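 Greenhouse test; postemergence application to plants at 1–4 leaves (2–18 cm); paddy species at 2 leaves; evaluated visually vs controls at 13–15 days; scale 0–100 (100 = complete control).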

[16] = test system: giant foxtail; assay: Test B pre-/postemergence herbicide test; format: in vivo, Setaria faberi; details: for Plant response rating (0 to 100 scale), Foxtail, Giant: 0 is no effect, 100 is complete control, preemergence
Summary of the method: as §2

[17] = test system: wild oat; assay: Test B postemergence herbicide test; format: in vivo, Avena fatua
Summary of the method: as §4

[18] = Postemergence, 500 g ai/ha, scale 0 (no effect) to 100 (complete control)
[19] = postemergence, 125 g ai/ha, scale 0 to 100
[20] = 500 g ai/ha, scale 0 to 100, 0 no effect, 100 complete control, preemergence

## CCOC(=O)c1cncc(NC(=O)c2nn(C(C)(C)C)nc2C)c1 [Compound 422]
[1]; 125 g ai/ha
  Plant response rating (0 to 100 scale), Cocklebur: 0
[1]; [18]
  Cocklebur plant response rating: 0
[1]; [19]
  Cocklebur plant response rating: 0
[2]; 125 g ai/ha
  Plant response rating (0 to 100 scale), Lambsquarters: 0
[2]; [18]
  Lambsquarters plant response rating: 0
[2]; [19]
  Lambsquarters plant response rating: 0
[3]; 125 g ai/ha
  Plant response rating (0 to 100 scale), Pigweed: 0
[3]; [18]
  Pigweed plant response rating: 0
[3]; [19]
  Pigweed plant response rating: 0
[4]
  Sedge, Umbrella plant response rating: 70
[5]; 125 g ai/ha
  Plant response rating (0 to 100 scale), Surinam Grass: 0
[5]; [18]
  Surinam Grass plant response rating: 0
[5]; [19]
  Surinam Grass plant response rating: 0
[6]; 125 g ai/ha
  Plant response rating (0 to 100 scale), Barnyardgrass: 0
  Barnyardgrass plant response rating: 0
[6]; 500 g ai/ha
  Barnyardgrass plant response rating: 0
[7]; 125 g ai/ha
  Plant response rating (0 to 100 scale), Morningglory: 0
[7]; [18]
  Morningglory plant response rating: 0
[7]; [19]
  Morningglory plant response rating: 0
[8]
  Barnyardgrass plant response rating: 30
[9]; 125 g ai/ha
  Plant response rating (0 to 100 scale), Corn: 0
[9]; [18]
  Corn plant response rating: 0
[9]; [19]
  Corn plant response rating: 0
[10]; [20]
  Wheat plant response rating: 0
[10]; [18]
  Wheat plant response rating: 0
[10]; [19]
  Wheat plant response rating: 0
[11]
  Ducksalad plant response rating: 20
[12]; 125 g ai/ha
  Plant response rating (0 to 100 scale), Crabgrass, Large: 0
[12]; [18]
  Crabgrass, Large plant response rating: 0
[12]; [19]
  Crabgrass, Large plant response rating: 0
[13]; [18]
  Blackgrass plant response rating: 20
[13]; [19]
  Blackgrass plant response rating: 20
[14]; 125 g ai/ha
  Plant response rating (0 to 100 scale), Velvetleaf: 0
[14]; [18]
  Velvetleaf plant response rating: 0
[14]; [19]
  Velvetleaf plant response rating: 0
[15]
  Rice plant response rating: 30
[16]; 125 g ai/ha
  Plant response rating (0 to 100 scale), Foxtail, Giant: 0
[16]; [18]
  Foxtail, Giant plant response rating: 0
[16]; [19]
  Foxtail, Giant plant response rating: 0
[17]; [18]
  Oat, Wild plant response rating: 0
[17]; [19]
  Oat, Wild plant response rating: 0

## Cc1nn(C(C)(C)C)nc1C(=O)Nc1cc(C(=O)N(C)C)ccn1 [Compound 423]
[1]; 125 g ai/ha
  Plant response rating (0 to 100 scale), Cocklebur: 20
[1]; [18]
  Cocklebur plant response rating: 30
[1]; [19]
  Cocklebur plant response rating: 10
[2]; 125 g ai/ha
  Plant response rating (0 to 100 scale), Lambsquarters: 100
[2]; [18]
  Lambsquarters plant response rating: 70
[2]; [19]
  Lambsquarters plant response rating: 50
[3]; 125 g ai/ha
  Plant response rating (0 to 100 scale), Pigweed: 100
[3]; [18]
  Pigweed plant response rating: 60
[3]; [19]
  Pigweed plant response rating: 40
[4]
  Sedge, Umbrella plant response rating: 70
[5]; 125 g ai/ha
  Plant response rating (0 to 100 scale), Surinam Grass: 90
[5]; [18]
  Surinam Grass plant response rating: 30
[5]; [19]
  Surinam Grass plant response rating: 10
[6]; 125 g ai/ha
  Plant response rating (0 to 100 scale), Barnyardgrass: 90
  Barnyardgrass plant response rating: 10
[6]; 500 g ai/ha
  Barnyardgrass plant response rating: 30
[7]; 125 g ai/ha
  Plant response rating (0 to 100 scale), Morningglory: 30
[7]; [18]
  Morningglory plant response rating: 80
[7]; [19]
  Morningglory plant response rating: 40
[8]
  Barnyardgrass plant response rating: 80
[9]; 125 g ai/ha
  Plant response rating (0 to 100 scale), Corn: 30
[9]; [18]
  Corn plant response rating: 20
[9]; [19]
  Corn plant response rating: 10
[10]; [20]
  Wheat plant response rating: 100
[10]; [18]
  Wheat plant response rating: 0
[10]; [19]
  Wheat plant response rating: 0
[11]
  Ducksalad plant response rating: 50
[12]; 125 g ai/ha
  Plant response rating (0 to 100 scale), Crabgrass, Large: 100
[12]; [18]
  Crabgrass, Large plant response rating: 50
[12]; [19]
  Crabgrass, Large plant response rating: 10
[13]; [18]
  Blackgrass plant response rating: 60
[13]; [19]
  Blackgrass plant response rating: 30
[14]; 125 g ai/ha
  Plant response rating (0 to 100 scale), Velvetleaf: 90
[14]; [18]
  Velvetleaf plant response rating: 50
[14]; [19]
  Velvetleaf plant response rating: 40
[15]
  Rice plant response rating: 60
[16]; 125 g ai/ha
  Plant response rating (0 to 100 scale), Foxtail, Giant: 90
[16]; [18]
  Foxtail, Giant plant response rating: 30
[16]; [19]
  Foxtail, Giant plant response rating: 20
[17]; [18]
  Oat, Wild plant response rating: 30
[17]; [19]
  Oat, Wild plant response rating: 0

Reference: patent publication US20060069132A1, “Azolecarboxamide herbicides” (priority 2004, published 2006)
